In patent publication US20250127905A1, “GLUTARIMIDE COMPOUND AND USE THEREOF” (MEDSHINE DISCOVERY INC., priority 2021, published 2025):
Counter-ions that a name gives are not always drawn.

Test system: sodium urate-induced acute gouty arthritis
Test: Sodium urate-induced acute gouty arthritis in rats
Assay type: in vivo, SD rats
Description: It is to evaluate the preventive and therapeutic effect of compounds on sodium urate-induced acute gouty arthritis in rats. Animals: 5-week-old male SD rats; source: Zhejiang Vital River Laboratory Animal Technology Co., Ltd. Experimental grouping: After 3 days of acclimatization, all animals were measured for basal hindfoot volume, arthritis index score, and bilateral hindfoot pain threshold. 50 animals were selected and divided equally into 5 groups with 10 animals each based on body weight, hindfoot volume, arthritis index, and bilateral hindfoot pain threshold. The day of initiation of administration was recorded as D-1, and intragastric administration was performed twice a day for 6 consecutive days (D-1 to […]). 1 hour after the first administration at D0 (1 day after administration), except for the blank control group, the other rats were anesthetized with isoflurane, and 50 μL (50 mg/mL) of sodium urate solution was injected into the joint cavity for modeling at the lateral posterior side of the right ankle joint, which was used as a puncture point. Joint swelling would peak after 8 to 12 hours (lasting about 72 hours). Foot volumes of the animals were measured and arthritis index (AI) scoring was performed before and 2, 5, 8, 11, 24, 48, 72, and 96 hours after the onset of inflammation; pain thresholds were measured using a bipedal balance pain tester before and 2, 24, 48, 72, and 96 hours after the onset of inflammation. Photographs of critical swelling were taken at the peak of joint swelling (8 to 12 hours) in each group of animals and retained. Foot volume measurement: Before measurement, a line was drawn at the ankle joint of a rat with a marker to mark the position, and the instrument was added with clean water and zeroed to be ready for measurement. The hind limbs of the rat were placed in the water so that the marked line at the ankle joint was on the surface of the liquid, at which time the foot pedal was pressed to read the foot volume of the rat. At the end of the measurement, the foot pedal was pressed again for zeroing to be ready for the measurement of the next rat. Arthritis index (AI): The foot volume was measured while the swelling of the modeled foot was scored. Arthritis index scoring criteria: [table] Experimental data were expressed as Mean±SD; data were statistically analyzed using IBM SPSS Statistics 21, and p<0.05 was considered a significant difference between the two groups.

[1] = 30 mg/kg intragastric twice a day, time 0 h
[2] = 30 mg/kg intragastric twice a day, time 2 h
[3] = 30 mg/kg intragastric twice a day, time 5 h
[4] = 30 mg/kg intragastric twice a day, time 8 h
[5] = 30 mg/kg intragastric twice a day, time 11 h
[6] = 30 mg/kg intragastric twice a day, time 24 h
[7] = 30 mg/kg intragastric twice a day, time 48 h
[8] = 30 mg/kg intragastric twice a day, time 72 h
[9] = 30 mg/kg intragastric twice a day, time 96 h
[10] = 100 mg/kg intragastric twice a day, time 0 h
[11] = 100 mg/kg intragastric twice a day, time 2 h
[12] = 100 mg/kg intragastric twice a day, time 5 h
[13] = 100 mg/kg intragastric twice a day, time 8 h
[14] = 100 mg/kg intragastric twice a day, time 11 h
[15] = 100 mg/kg intragastric twice a day, time 24 h
[16] = 100 mg/kg intragastric twice a day, time 48 h
[17] = 100 mg/kg intragastric twice a day, time 72 h
[18] = 100 mg/kg intragastric twice a day, time 96 h
[19] = 200 mg/kg intragastric twice a day, time 0 h
[20] = 200 mg/kg intragastric twice a day, time 2 h
[21] = 200 mg/kg intragastric twice a day, time 5 h
[22] = 200 mg/kg intragastric twice a day, time 8 h
[23] = 200 mg/kg intragastric twice a day, time 11 h
[24] = 200 mg/kg intragastric twice a day, time 24 h
[25] = 200 mg/kg intragastric twice a day, time 48 h
[26] = 200 mg/kg intragastric twice a day, time 72 h
[27] = 200 mg/kg intragastric twice a day, time 96 h

`O=C1CCC(c2noc3c(NC(=O)CN4CCN(C[C@H]5CC[C@H](n6cc(NC(=O)c7cnn8ccc(N9C[C@H]%10C[C@@H]9CO%10)nc78)c(C(F)F)n6)CC5)CC4)cccc23)C(=O)N1` (stereo partly drawn) [Hydrochloride of WX015] showed an Arthritis index [1] of 0, a Foot volume [1] of 3.63 mL and a Hindfoot weight-bearing difference [1] of 0.69 g. For the same compound, the Arthritis index [2] was 1, the Foot volume [2] was 3.88 mL and the Hindfoot weight-bearing difference [2] was 19.09 g. For the same compound, the Arthritis index [3] was 1, the Foot volume [3] was 3.9 mL and the Arthritis index [4] was 1. For the same compound, the Foot volume [4] was 3.9 mL, the Arthritis index [5] was 1 and the Foot volume [5] was 3.92 mL. It also gave an Arthritis index [6] of 0.9, a Foot volume [6] of 3.9 mL and a Hindfoot weight-bearing difference [6] of 13.22 g. It also gave an Arthritis index [7] of 0.5, a Foot volume [7] of 3.91 mL and a Hindfoot weight-bearing difference [7] of 6.6 g. For the same compound, the Arthritis index [8] was 0.3, the Foot volume [8] was 3.94 mL and the Hindfoot weight-bearing difference [8] was 4.3 g. For the same compound, the Arthritis index [9] was 0.1, the Foot volume [9] was 3.96 mL and the Hindfoot weight-bearing difference [9] was 2.1 g. For the same compound, the Arthritis index [10] was 0, the Foot volume [10] was 3.63 mL and the Hindfoot weight-bearing difference [10] was 0.12 g. For the same compound, the Arthritis index [11] was 1, the Foot volume [11] was 3.85 mL and the Hindfoot weight-bearing difference [11] was 16.38 g. For the same compound, the Arthritis index [12] was 1, the Foot volume [12] was 3.88 mL and the Arthritis index [13] was 1. For the same compound, the Foot volume [13] was 3.9 mL, the Arthritis index [14] was 1 and the Foot volume [14] was 3.91 mL. It also gave an Arthritis index [15] of 0.6, a Foot volume [15] of 3.88 mL and a Hindfoot weight-bearing difference [15] of 12.2 g. The Arthritis index [16] was 0.3, the Foot volume [16] was 3.9 mL and the Hindfoot weight-bearing difference [16] was 5.72 g. It also gave an Arthritis index [17] of 0.2, a Foot volume [17] of 3.93 mL and a Hindfoot weight-bearing difference [17] of 3 g. It also gave an Arthritis index [18] of 0, a Foot volume [18] of 3.95 mL and a Hindfoot weight-bearing difference [18] of 2.01 g. It also gave an Arthritis index [19] of 0, a Foot volume [19] of 3.62 mL and a Hindfoot weight-bearing difference [19] of -0.23 g. The Arthritis index [20] was 1, the Foot volume [20] was 3.84 mL and the Hindfoot weight-bearing difference [20] was 14.81 g. It also gave an Arthritis index [21] of 1, a Foot volume [21] of 3.88 mL and an Arthritis index [22] of 1. It also gave a Foot volume [22] of 3.89 mL, an Arthritis index [23] of 1 and a Foot volume [23] of 3.88 mL. It also gave an Arthritis index [24] of 0.5, a Foot volume [24] of 3.87 mL and a Hindfoot weight-bearing difference [24] of 11.32 g. The Arthritis index [25] was 0.2, the Foot volume [25] was 3.89 mL and the Hindfoot weight-bearing difference [25] was 3.91 g. It also gave an Arthritis index [26] of 0, a Foot volume [26] of 3.91 mL and a Hindfoot weight-bearing difference [26] of 2.1 g. The Arthritis index [27] was 0, the Foot volume [27] was 3.93 mL and the Hindfoot weight-bearing difference [27] was 1.94 g.
